# Laboratory results from PMC12527922, “Cocaine chemogenetics blunts drug-seeking by synthetic physiology” (Nature, 2025).
# Values joined by “and” are separate entries in the source; they are usually repeats but may differ in a detail not shown here. Equal entries are not always repeated.
# Tested on: GRABDA dopamine sensor, nucleus accumbens shell
# Test: Fibre photometry of dopamine (GRABDA) after cocaine administration
# Assay type: in vivo, rat
# Conditions: for GRABDA dopamine signal, Mean: ED Fig. 9d; for GRABDA response versus saline: cocaine 5, 10, 20 mg per kg i.p.
# Protocol: Male Sprague–Dawley rats were anaesthetized with isoflurane (1.5–2%) and then placed onto a stereotaxic frame (Kopf) and injected with AAV5-Syn::coca-5HT3-IRES-mCherry (0.5 µl, 4.95 × 10^12 vg per ml) into the LHb (AP, −3.8 mm relative to bregma; ML, ±0.7 mm; DV, −5.25 mm, at a 10° angle) (n = 5) or underwent sham surgery (n = 6). Rats were also implanted with an optic fibre (400 µm core, 0.50 NA) attached to a 2.5 mm diameter ferrule (Thorlabs) directed to the medial shell of the nucleus accumbens (AP, +1.7 mm relative to bregma; ML, ±0.9 mm; DV, −7.0 mm). To ensure that AAV9-Syn::GRABDA1m was transduced at the direct vicinity of the fibre tip, we coated the fibre with the AAV (0.4 µl, 5 × 10^12 vg per ml) using a silk fibroin film before its implantation as previously described.
# For fibre photometry, dopamine (GRABDA) dynamics were measured using a Tucker-Davis Technologies (TDT) system in anaesthetized rats. […] Data were acquired at 1 kHz. On the testing day, rats were anaesthetized (isoflurane: induction, 5%; maintenance, 3%) and attached to a photometry patch cord (400 μm core, 0.50 NA). GRABDA signals were then collected for 5 min, followed by a saline i.p. injection, and additional GRABDA signal measurement for 20 min. Cocaine was then injected i.p. at 20, 10 or 5 mg per kg, and the GRABDA signal was measured for an additional 20 min. Each rat was tested three times with cocaine doses administered in randomized order. Fibre photometry analyses were performed using scripts in MATLAB R2023b (MathWorks) based on codes from the Barker (https://github.com/djamesbarker)[64] and Lerner (https://github.com/talialerner/)[65] laboratories. […] The GRABDA signal was normalized to values at 1 min before saline or cocaine injection and shown as the average z-scored activity per min. […] Fibre photometry data are represented as mean ± s.e.m. Statistical analyses were performed using Prism 10 (GraphPad).
# [1] = ED Fig. 9a, Cocaine 10 mg/kg, Time 5
# [2] = ED Fig. 9a, Cocaine 10 mg/kg, Time 6
# [3] = ED Fig. 9a, Cocaine 10 mg/kg, Time 7
# [4] = ED Fig. 9a, Cocaine 10 mg/kg, Time 8
# [5] = ED Fig. 9a, Cocaine 10 mg/kg, Time 9
# [6] = ED Fig. 9a, Cocaine 10 mg/kg, Time 10
# [7] = ED Fig. 9a, Cocaine 10 mg/kg, Time 11
# [8] = ED Fig. 9a, Cocaine 10 mg/kg, Time 12
# [9] = ED Fig. 9a, Cocaine 10 mg/kg, Time 13
# [10] = ED Fig. 9a, Cocaine 10 mg/kg, Time 14
# [11] = ED Fig. 9a, Cocaine 10 mg/kg, Time 15
# [12] = ED Fig. 9a, Cocaine 10 mg/kg, Time 16
# [13] = ED Fig. 9a, Cocaine 10 mg/kg, Time 17
# [14] = ED Fig. 9a, Cocaine 10 mg/kg, Time 18
# [15] = ED Fig. 9a, Cocaine 10 mg/kg, Time 19
# [16] = ED Fig. 9a, Cocaine 10 mg/kg, Time -1
compound,measurement,setting,value
COC(=O)[C@H]1[C@@H](OC(=O)c2ccccc2)C[C@@H]2CC[C@H]1N2C [cocaine],"GRABDA dopamine signal, single rats","ED Fig. 9a, Cocaine 10 mg/kg, Time 4",1.256 and 1.397 and 0.09982 and 0.6394 and 1.0999 and 0.05112
same,"GRABDA dopamine signal, AVG",[1],1.193
same,"GRABDA dopamine signal, single rats",[1],1.343 and 2.078 and 0.3984 and 0.8156 and 2.4787 and 0.0445
same,"GRABDA dopamine signal, AVG",[2],1.422
same,"GRABDA dopamine signal, single rats",[2],1.711 and 2.382 and 0.7218 and 1.242 and 2.331 and 0.1429
same,"GRABDA dopamine signal, AVG",[3],1.596
same,"GRABDA dopamine signal, single rats",[3],1.781 and 2.522 and 1.248 and 1.497 and 2.407 and 0.1218
same,"GRABDA dopamine signal, AVG",[4],1.699
same,"GRABDA dopamine signal, single rats",[4],2.125 and 2.686 and 1.2639 and 1.736 and 2.313 and 0.06957
same,"GRABDA dopamine signal, AVG",[5],1.935
same,"GRABDA dopamine signal, single rats",[5],2.098 and 2.8744 and 1.781 and 1.888 and 2.927 and 0.03932
same,"GRABDA dopamine signal, AVG",[6],2.176
same,"GRABDA dopamine signal, single rats",[6],2.19 and 2.83 and 2.002 and 2.24 and 3.737 and 0.0549
same,"GRABDA dopamine signal, AVG",[7],2.088
same,"GRABDA dopamine signal, single rats",[7],2.259 and 2.779 and 2.031 and 2.445 and 2.889 and 0.1232
same,"GRABDA dopamine signal, AVG",[8],1.996
same,"GRABDA dopamine signal, single rats",[8],2.418 and 2.64 and 2.12 and 2.366 and 2.425 and 0.00481
same,"GRABDA dopamine signal, AVG",[9],2.15
same,"GRABDA dopamine signal, single rats",[9],2.55 and 2.491 and 2.555 and 2.51 and 2.634 and 0.161
same,"GRABDA dopamine signal, AVG",[10],2.1808
same,"GRABDA dopamine signal, single rats",[10],2.759 and 2.573 and 2.372 and 2.6549 and 2.629 and 0.09693
same,"GRABDA dopamine signal, AVG",[11],2.145
same,"GRABDA dopamine signal, single rats",[11],2.608 and 2.303 and 2.535 and 2.6631 and 2.692 and 0.06715
same,"GRABDA dopamine signal, AVG",[12],2.005
same,"GRABDA dopamine signal, single rats",[12],2.483 and 2.2 and 2.525 and 2.513 and 2.213 and 0.09632
same,"GRABDA dopamine signal, AVG",[13],2.106
same,"GRABDA dopamine signal, single rats",[13],2.751 and 1.972 and 2.4136 and 2.994 and 2.448 and 0.05475
same,"GRABDA dopamine signal, AVG",[14],1.975
same,"GRABDA dopamine signal, single rats",[14],2.385 and 1.7832 and 2.833 and 2.375 and 2.433 and 0.03971
same,"GRABDA dopamine signal, AVG",[15],1.865
same,"GRABDA dopamine signal, single rats",[15],2.396 and 1.613 and 2.323 and 2.558 and 2.225 and 0.07693
same,"GRABDA dopamine signal, AVG",[16],0.04715
same,"GRABDA dopamine signal, single rats",[16],0.0433 and 0.0669 and 0.08953 and 0.0687
same,"GRABDA dopamine signal, AVG","ED Fig. 9c, Cocaine 20 mg/kg, Time 0",0.0619
same,"GRABDA dopamine signal, AVG","ED Fig. 9c, Cocaine 20 mg/kg, Time 1",0.07229
same,"GRABDA dopamine signal, AVG","ED Fig. 9c, Cocaine 20 mg/kg, Time 2",0.3247
same,"GRABDA dopamine signal, AVG","ED Fig. 9c, Cocaine 20 mg/kg, Time 3",0.7746
same,"GRABDA dopamine signal, AVG","ED Fig. 9c, Cocaine 20 mg/kg, Time 4",1.201
same,"GRABDA dopamine signal, AVG","ED Fig. 9c, Cocaine 20 mg/kg, Time 5",1.589
same,"GRABDA dopamine signal, AVG","ED Fig. 9c, Cocaine 20 mg/kg, Time 6",1.681
same,"GRABDA dopamine signal, AVG","ED Fig. 9c, Cocaine 20 mg/kg, Time 7",1.863
same,"GRABDA dopamine signal, AVG","ED Fig. 9c, Cocaine 20 mg/kg, Time 8",1.725
same,"GRABDA dopamine signal, AVG","ED Fig. 9c, Cocaine 20 mg/kg, Time 9",1.85
same,"GRABDA dopamine signal, AVG","ED Fig. 9c, Cocaine 20 mg/kg, Time 10",1.747
same,"GRABDA dopamine signal, AVG","ED Fig. 9c, Cocaine 20 mg/kg, Time 11",1.666
same,"GRABDA dopamine signal, AVG","ED Fig. 9c, Cocaine 20 mg/kg, Time 12",1.553
same,"GRABDA dopamine signal, AVG","ED Fig. 9c, Cocaine 20 mg/kg, Time 13",1.4
same,"GRABDA dopamine signal, AVG","ED Fig. 9c, Cocaine 20 mg/kg, Time 14",1.393
same,"GRABDA dopamine signal, AVG","ED Fig. 9c, Cocaine 20 mg/kg, Time 15",1.467
same,"GRABDA dopamine signal, AVG","ED Fig. 9c, Cocaine 20 mg/kg, Time 16",1.282
same,"GRABDA dopamine signal, AVG","ED Fig. 9c, Cocaine 20 mg/kg, Time 17",1.1
same,"GRABDA dopamine signal, AVG","ED Fig. 9c, Cocaine 20 mg/kg, Time 18",1.175
same,"GRABDA dopamine signal, AVG","ED Fig. 9c, Cocaine 20 mg/kg, Time 19",1.238
same,"GRABDA dopamine signal, AVG","ED Fig. 9c, Cocaine 20 mg/kg, Time -1",-0.01168
same,"GRABDA dopamine signal, Mean","Cocaine 20 mg/kg, Time 0",-0.2698
same,"GRABDA dopamine signal, Mean","Cocaine 20 mg/kg, Time 1",-0.1247
same,"GRABDA dopamine signal, Mean","Cocaine 20 mg/kg, Time 2",0.09345
same,"GRABDA dopamine signal, Mean","Cocaine 20 mg/kg, Time 3",0.3137
same,"GRABDA dopamine signal, Mean","Cocaine 20 mg/kg, Time 4",0.5516
same,"GRABDA dopamine signal, Mean","Cocaine 20 mg/kg, Time 5",0.5577
same,"GRABDA dopamine signal, Mean","Cocaine 20 mg/kg, Time 6",0.3392
same,"GRABDA dopamine signal, Mean","Cocaine 20 mg/kg, Time 7",0.3431
same,"GRABDA dopamine signal, Mean","Cocaine 20 mg/kg, Time 8",0.2873
same,"GRABDA dopamine signal, Mean","Cocaine 20 mg/kg, Time 9",0.5323
same,"GRABDA dopamine signal, Mean","Cocaine 20 mg/kg, Time 10",0.4252
same,"GRABDA dopamine signal, Mean","Cocaine 20 mg/kg, Time 11",0.3604
same,"GRABDA dopamine signal, Mean","Cocaine 20 mg/kg, Time 12",0.1832
same,"GRABDA dopamine signal, Mean","Cocaine 20 mg/kg, Time 13",0.2813
same,"GRABDA dopamine signal, Mean","Cocaine 20 mg/kg, Time 14",0.2778
same,"GRABDA dopamine signal, Mean","Cocaine 20 mg/kg, Time 15",0.4094
same,"GRABDA dopamine signal, Mean","Cocaine 20 mg/kg, Time 16",0.4918
same,"GRABDA dopamine signal, Mean","Cocaine 20 mg/kg, Time 17",0.3214
same,"GRABDA dopamine signal, Mean","Cocaine 20 mg/kg, Time 18",0.2818
same,"GRABDA dopamine signal, Mean","Cocaine 20 mg/kg, Time 19",0.2119
same,"GRABDA dopamine signal, Mean","Cocaine 20 mg/kg, Time -1",0.05504
same,GRABDA response versus saline,coca-5HT3 rats,did not produce statistically significant increases
same,GRABDA response versus saline,control rats,significantly increased
